In patent publication US4853221A, “Method for treating non-small cell lung cancer, head and neck cancers and breast cancer” (Warner-Lambert Company, priority 1987, dated 1989):

Assays:
[1] = tested on: Advanced Stage P388 Leukemia; format: in vivo, mouse; conditions: Test 2
Procedure: (§1) Several studies were carried out to determine the potential for therapeutic synergy of trimetrexate with several clinically active anticancer agents. […] (See, for example, Vendetti, "Relevance of Transplantable Animal-Tumor Systems to the Selection of New Agents for Clinical Trial," Pharmacological Basis of Cancer Chemotherapy. Williams and Wilkins, Baltimore, 1975, and Simpson Herren, et al., "Evaluation of In Vivo Tumor Models for Predicting Clinical Activity for Anticancer Drugs," Proc. Am. Assoc. Cancer Res., 26: 330 (1985).
(§2) Differences in cell kill of greater than ten-fold (one log) were considered indicative of therapeutic synergy.
(§3) CD2F1 mice were quarantined for at least two weeks prior to allocation to test groups. P388 leukemia was passaged in DBA2 mice according to standard protocols of the National Cancer Institute. On Day 0 of a given test, all mice in the test were randomized, injected intraperitoneally with suitably diluted ascites fluid from P388 tumor-bearing donor mice and rerandomized to test cages.
The initial inoculum for all but titration groups was 10^6 cells as determined by hemocytometer count. […]
(§4) Group average weights were determined for all groups on Days 1, 5, and 9 for "early stage" P388 tests and on Days 4, 8, and 12 for "advanced stage" P388 tests. Animals were monitored for life span. […]

[2] = tested on: Early Stage P388 Leukemia; test: Combination chemotherapy, therapeutic synergy against early stage P388 leukemia; format: in vivo, mouse
Procedure: as §1, §2, §3
The initial inoculum for all but titration groups was 10^6 cells as determined by hemocytometer count. Each experiment contained an internal control and tumor titration which enabled the determination of the tumor doubling time and estimates of the log cell kill and number of tumor cells surviving treatment.
Drug treatment was begun either on Day 1 or on Day 4 depending upon the relative activity of the agents being tested.
All of the drugs were injected within one hour of dissolution, with the exception of trimetrexate which was made up fresh twice daily. All mice were treated on the basis of average cage-group weight.
In drug combination regimens, trimetrexate was given approximately 30 minutes before the other therapeutic agents when the route of administration of the other agent was ip. […]
as §4

Breast tumor = test: Human tumor cloning system, breast tumors; format: cell-based; conditions: methotrexate 0.3 μg/ml, one hour; 10 specimens
Excerpt: (§5) The activity of trimetrexate was compared with that of methotrexate in tests with a human tumor cloning system (Latham, et al., Proc. Am. Assoc. Cancer Res., 24: 278 (1983)). The data from these tests appear in Table III were the activities are expressed as the numbers of tumors with 50% or greater reduction in tumor colony forming units after one hour exposure to the drug.

B-Cell 8392 = test: Inhibition of B-Cell 8392 growth in vitro; format: cell-based, human; conditions: Homo sapiens, B-cell, 48 h, read-out: ED50
Procedure: (§6) Logarithmically growing L1210 cells (approximately 3×10^5 cells/ml) were diluted with Fischer's medium (containing 10% horse serum) to an approximate concentration of 5×10^4 cells/ml. Cells were planted in duplicate into 15 ml culture tubes containing either no drug or various amounts of drug, and incubated for 48 hours at 37° C. before being counted.
(§7) Trimetrexate was also evaluated in a similar manner side-by-side with methotrexate for its effect on the growth of three additional murine cell lines (L5178Y, Sarcoma-180, and Walkler-256) and three human cell lines (acute myelogenous leukemia K-562, T-cell 8402, and B-cell 8392), propagated in vitro.

Melanoma = test: Human tumor cloning system, melanoma; format: cell-based; conditions: methotrexate 0.3 μg/ml, one hour; 5 specimens
Excerpt: as §5

Ovarian tumor = test: Human tumor cloning system, ovarian tumors; format: cell-based; conditions: methotrexate 0.3 μg/ml, one hour; 6 specimens
Excerpt: as §5

Colon tumor = test: Human tumor cloning system, colon tumors; format: cell-based; conditions: methotrexate 0.3 μg/ml, one hour; 9 specimens
Excerpt: as §5

AML K-562 = test: Inhibition of AML K-562 cell growth in vitro; format: cell-based, human; conditions: Homo sapiens, K562, 48 h, read-out: ED50
Procedure: as §6, §7

human tumor cultures = test: Human tumor cloning system, all tumors; format: cell-based
Excerpt: as §5

Renal tumor = test: Human tumor cloning system, renal tumors; format: cell-based; conditions: methotrexate 0.3 μg/ml, one hour; 6 specimens
Excerpt: as §5

T-Cell 8402 = test: Inhibition of T-Cell 8402 growth in vitro; format: cell-based, human; conditions: Homo sapiens, T-cell, 48 h, read-out: ED50
Procedure: as §6, §7

Miscell. tumors = test: Human tumor cloning system, miscellaneous tumors; format: cell-based; conditions: methotrexate 0.3 μg/ml, one hour; 10 specimens
Excerpt: as §5

L1210 cells = test: Inhibition of L1210 cell growth in vitro; format: cell-based, murine; conditions: Mus musculus, L1210, 48 h, read-out: ED50 for L1210 Cells
Procedure: Two leukemia cell lines (L1210 and L5178Y) and two solid tumor cell lines (Sarcoma 180 and Walker 256) were used in these studies.
as §6
*ED50 = the concentration of drug required to reduce the cell count
to 50%, determined by plotting the cell count versus drug concentration.

Lung tumor = test: Human tumor cloning system, lung tumors; format: cell-based; conditions: methotrexate 0.3 μg/ml, one hour; 8 specimens
Excerpt: as §5

Compound: N.N.[Cl][Pt][Cl] [Cisplatin, cis-Diamminedichloroplatinum (II)]
- single agent activity [1]: considerably less active as a single agent

Compound: COc1cccc2c1C(=O)c1c(O)c3c(c(O)c1C2=O)C[C@@](O)(C(=O)CO)C[C@@H]3O[C@H]1C[C@H](N)[C@H](O)[C@H](C)O1 [Doxorubicin, (8S,10S)-10-[(3-Amino-2,3,6-trideoxy-α-L-lyxo-hexopyranosyl)oxy]-8-glycoloyl-7,8,9,10-tetrahydro-6,8,11-trihydroxy-1-methoxy-5,12-naphthacenedione]
- single agent activity ([2]; Test 1): somewhat less active than expected

Compound: CN(Cc1cnc2nc(N)nc(N)c2n1)c1ccc(C(=O)N[C@@H](CCC(=O)O)C(=O)O)cc1 [Methotrexate, N-[4-[[(2,4-diamino-6-pteridinyl)methyl]methylamino]benzoyl]-L-glutamic acid, reference compound]
- Number of Tumors with 50% or Greater Decrease in Tumor Colony Forming Units (Breast tumor): 1
- IC50 (B-Cell 8392): 25 nM
- Number of Tumors with 50% or Greater Decrease in Tumor Colony Forming Units (Melanoma): 1
- Number of Tumors with 50% or Greater Decrease in Tumor Colony Forming Units (Ovarian tumor): 0
- Number of Tumors with 50% or Greater Decrease in Tumor Colony Forming Units (Colon tumor): 2
- IC50 (AML K-562): 50 nM
- human tumor cultures sensitive to methotrexate and resistant to trimetrexate (human tumor cultures; 4/54): 7%
- Number of Tumors with 50% or Greater Decrease in Tumor Colony Forming Units (human tumor cultures; Totals, methotrexate 0.3 μg/ml, one hour, 54 specimens): 7
- Number of Tumors with 50% or Greater Decrease in Tumor Colony Forming Units (Renal tumor): 1
- IC50 (T-Cell 8402): 25 nM
- Number of Tumors with 50% or Greater Decrease in Tumor Colony Forming Units (Miscell. tumors): 1
- IC50 (L1210 cells): 8 nM
- Number of Tumors with 50% or Greater Decrease in Tumor Colony Forming Units (Lung tumor): 1

Compound: CC[C@]1(O)C[C@H]2CN(CCc3c([nH]c4ccccc34)[C@@](C(=O)OC)(c3cc4c(cc3OC)N(C=O)[C@H]3[C@@](O)(C(=O)OC)[C@H](OC(C)=O)[C@]5(CC)C=CCN6CC[C@]43[C@@H]65)C2)C1 [Vincristine, 22-Oxo-vincaleukoblastine]
- single agent activity ([2]; Test 2): the more active of the single agents
